Experimental data published in the NIST ThermoML archive (doi:10.1016/j.fluid.2010.10.018).

Settings: 101.33 kPa, Liquid

CCCCCCCCCCn1cc[n+](C)c1.O=S(=O)([N-]S(=O)(=O)C(F)(F)F)C(F)(F)F
viscosity [mPa·s]
Settings	Concentric cylinders viscometry	Falling or rolling sphere viscometry
278 K	403.2	–
283 K	287.62	292.44
288 K	210.53	–
293 K	157.52	159.41
298 K	120.18	–
303 K	93.45	–
308 K	73.92	–
313 K	59.37	60.51
318 K	48.36	–
323 K	39.91	–
328 K	33.32	–
333 K	28.12	29.3
338 K	23.97	–
343 K	20.62	–
348 K	17.88	–
353 K	15.63	16.14
358 K	13.75	–
373 K	–	10
393 K	–	6.8

CCCCCC[n+]1ccn(C)c1.O=S(=O)([N-]S(=O)(=O)C(F)(F)F)C(F)(F)F
viscosity [mPa·s]
Settings	Concentric cylinders viscometry	Falling or rolling sphere viscometry
278 K	212.3	–
283 K	155.94	–
288 K	117.29	–
293 K	90.13	87.84
298 K	70.61	–
303 K	56.3	–
308 K	45.61	–
313 K	37.47	37.08
318 K	31.19	–
323 K	26.25	–
328 K	22.35	–
333 K	19.2	19.29
338 K	16.65	–
343 K	14.55	–
348 K	12.81	–
353 K	11.35	11.48
358 K	10.13	–
373 K	–	7.46
393 K	–	5.28

CCCCCCCCn1cc[n+](C)c1.O=S(=O)([N-]S(=O)(=O)C(F)(F)F)C(F)(F)F
Concentric cylinders viscometry
Settings	viscosity [mPa·s]
278 K	297.03
283 K	214.79
288 K	159.11
293 K	120.46
298 K	93.05
303 K	73.2
308 K	58.53
313 K	47.5
318 K	39.09
323 K	32.56
328 K	27.43
333 K	23.35
338 K	20.06
343 K	17.38
348 K	15.18
353 K	13.35
358 K	11.83

CCCCCCCCCCCCn1cc[n+](C)c1.O=S(=O)([N-]S(=O)(=O)C(F)(F)F)C(F)(F)F
Concentric cylinders viscometry
Settings	viscosity [mPa·s]
283 K	384.51
288 K	277.46
293 K	205
298 K	154.33
303 K	118.68
308 K	93.71
313 K	74.49
318 K	60.08
323 K	49.11
328 K	40.64
333 K	34.01
338 K	28.76
343 K	24.55
348 K	21.14
353 K	18.35
358 K	16.05
363 K	14.12

CCCn1cc[n+](C)c1.O=S(=O)([N-]S(=O)(=O)C(F)(F)F)C(F)(F)F
viscosity [mPa·s]
Settings	Concentric cylinders viscometry	Falling or rolling sphere viscometry
278 K	122.17	–
283 K	92.6	–
288 K	71.78	–
293 K	56.78	56.4
298 K	45.75	–
303 K	37.43	–
308 K	31.07	–
313 K	26.13	26.17
318 K	22.23	–
323 K	19.11	–
328 K	16.58	–
333 K	14.5	14.82
338 K	12.79	–
343 K	11.35	–
348 K	10.14	–
353 K	9.118	9.251
358 K	8.24	–
373 K	–	6.32

CCCCCCCCCCCCCCn1cc[n+](C)c1.O=S(=O)([N-]S(=O)(=O)C(F)(F)F)C(F)(F)F
Concentric cylinders viscometry
Settings	viscosity [mPa·s]
313 K	98.04
318 K	78.06
323 K	63.09
328 K	51.68
333 K	42.83
338 K	35.87
343 K	30.36
348 K	25.93
353 K	22.33
358 K	19.38
363 K	16.95
